Assay results: ChEMBL document CHEMBL3046380, “In Vitro and In Vivo Characterization of Alpha-1A Selective Agonists and Their Utility for Stress Incontience” (Med Chem Res, 2004)
The source made the active and inactive calls. The calls are words filed in the database; no cut-off is given here.

Legend:
[1] = biological target: T1, Alpha-1A adrenergic receptor (Oryctolagus cuniculus, UniProt O02824); experiment: (§1) Agonist activity at alpha1A adrenoreceptor in Oryctolagus cuniculus (rabbit) urethra
T1 sequence (O02824 whole entry): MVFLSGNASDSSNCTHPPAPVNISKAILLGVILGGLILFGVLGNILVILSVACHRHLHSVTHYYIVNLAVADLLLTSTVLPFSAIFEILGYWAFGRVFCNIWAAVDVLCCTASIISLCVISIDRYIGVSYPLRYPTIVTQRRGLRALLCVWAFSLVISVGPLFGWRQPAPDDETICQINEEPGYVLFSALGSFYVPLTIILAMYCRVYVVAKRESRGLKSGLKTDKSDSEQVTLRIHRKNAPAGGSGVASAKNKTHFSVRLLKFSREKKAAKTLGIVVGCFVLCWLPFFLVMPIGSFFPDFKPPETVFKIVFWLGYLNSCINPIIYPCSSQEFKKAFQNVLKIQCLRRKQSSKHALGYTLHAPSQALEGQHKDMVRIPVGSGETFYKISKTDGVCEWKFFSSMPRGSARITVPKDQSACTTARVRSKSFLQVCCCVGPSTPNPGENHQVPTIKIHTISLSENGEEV

[2] = biological target: T2, Alpha-1B adrenergic receptor (Rattus norvegicus) (UniProt P15823); experiment: (§2) Agonist activity at alpha1B adrenoreceptor in Rattus norvegicus (rat) spleen
T2 sequence (whole entry): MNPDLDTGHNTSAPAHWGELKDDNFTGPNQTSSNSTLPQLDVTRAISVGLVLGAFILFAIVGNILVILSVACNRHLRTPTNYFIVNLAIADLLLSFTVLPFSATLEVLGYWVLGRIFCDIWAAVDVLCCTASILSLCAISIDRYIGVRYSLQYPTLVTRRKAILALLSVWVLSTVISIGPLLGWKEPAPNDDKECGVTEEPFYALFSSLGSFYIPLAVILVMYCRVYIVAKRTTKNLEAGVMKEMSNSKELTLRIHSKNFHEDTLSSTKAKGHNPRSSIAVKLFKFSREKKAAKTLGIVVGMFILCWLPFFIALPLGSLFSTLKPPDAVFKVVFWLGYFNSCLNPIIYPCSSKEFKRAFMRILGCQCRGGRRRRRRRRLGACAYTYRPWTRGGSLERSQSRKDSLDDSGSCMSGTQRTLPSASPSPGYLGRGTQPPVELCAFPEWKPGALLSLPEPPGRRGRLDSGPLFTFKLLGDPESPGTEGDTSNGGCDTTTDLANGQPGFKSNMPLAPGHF

[3] = biological target: T3, Alpha-1B adrenergic receptor (Mesocricetus auratus, UniProt P18841); experiment: Binding affinity to Cricetinae (hamster) alpha1B adrenoreceptor by radioligand displacement assay
T3 sequence (P18841 whole entry): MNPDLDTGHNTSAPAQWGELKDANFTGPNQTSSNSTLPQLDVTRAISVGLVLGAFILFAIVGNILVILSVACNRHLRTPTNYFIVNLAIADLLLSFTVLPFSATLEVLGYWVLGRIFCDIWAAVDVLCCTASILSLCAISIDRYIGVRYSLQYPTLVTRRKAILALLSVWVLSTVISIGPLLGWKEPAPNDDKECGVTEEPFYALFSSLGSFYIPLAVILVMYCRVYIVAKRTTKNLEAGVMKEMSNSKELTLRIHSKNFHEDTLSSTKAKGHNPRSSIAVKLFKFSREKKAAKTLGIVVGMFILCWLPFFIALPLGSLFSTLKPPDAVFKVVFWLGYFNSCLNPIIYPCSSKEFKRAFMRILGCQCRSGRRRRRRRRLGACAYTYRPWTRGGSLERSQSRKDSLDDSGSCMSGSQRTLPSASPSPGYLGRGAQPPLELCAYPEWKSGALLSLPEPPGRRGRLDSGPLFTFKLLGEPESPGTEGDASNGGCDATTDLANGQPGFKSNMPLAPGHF

[4] = biological target: T4, Alpha-1A adrenergic receptor (Oryctolagus cuniculus) (UniProt O02824); experiment: as §1
T4 sequence (whole entry): T1 sequence (O02824 whole entry)

[5] = biological target: T5, Alpha-1D adrenergic receptor (Rattus norvegicus, UniProt P23944); experiment: Binding affinity to Rattus norvegicus (rat) alpha1D adrenoreceptor by radioligand displacement assay
T5 sequence (P23944 whole entry): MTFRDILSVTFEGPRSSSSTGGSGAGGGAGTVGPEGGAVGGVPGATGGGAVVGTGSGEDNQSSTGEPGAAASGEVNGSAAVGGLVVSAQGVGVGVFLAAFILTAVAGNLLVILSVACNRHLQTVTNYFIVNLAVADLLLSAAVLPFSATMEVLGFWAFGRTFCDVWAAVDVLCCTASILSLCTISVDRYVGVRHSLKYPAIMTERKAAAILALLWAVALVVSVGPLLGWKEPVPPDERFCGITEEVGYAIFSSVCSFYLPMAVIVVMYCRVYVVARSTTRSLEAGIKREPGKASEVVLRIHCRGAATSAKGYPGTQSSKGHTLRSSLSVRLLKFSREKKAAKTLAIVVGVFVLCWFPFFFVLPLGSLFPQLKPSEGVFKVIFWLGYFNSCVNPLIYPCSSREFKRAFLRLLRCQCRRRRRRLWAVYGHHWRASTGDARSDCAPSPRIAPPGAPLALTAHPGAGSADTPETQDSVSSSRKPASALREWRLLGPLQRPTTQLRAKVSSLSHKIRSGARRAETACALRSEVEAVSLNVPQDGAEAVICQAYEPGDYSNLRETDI

[6] = biological target: T6, Alpha-1B adrenergic receptor (Rattus norvegicus, UniProt P15823); experiment: as §2
T6 sequence (P15823 whole entry): T2 sequence (whole entry)

[7] = biological target: T7, Alpha-1A adrenergic receptor (Rattus norvegicus, UniProt P43140); experiment: Binding affinity to alpha1A adrenoreceptor in Rattus norvegicus (rat) submaxillary gland by radioligand displacement assay
T7 sequence (P43140 whole entry): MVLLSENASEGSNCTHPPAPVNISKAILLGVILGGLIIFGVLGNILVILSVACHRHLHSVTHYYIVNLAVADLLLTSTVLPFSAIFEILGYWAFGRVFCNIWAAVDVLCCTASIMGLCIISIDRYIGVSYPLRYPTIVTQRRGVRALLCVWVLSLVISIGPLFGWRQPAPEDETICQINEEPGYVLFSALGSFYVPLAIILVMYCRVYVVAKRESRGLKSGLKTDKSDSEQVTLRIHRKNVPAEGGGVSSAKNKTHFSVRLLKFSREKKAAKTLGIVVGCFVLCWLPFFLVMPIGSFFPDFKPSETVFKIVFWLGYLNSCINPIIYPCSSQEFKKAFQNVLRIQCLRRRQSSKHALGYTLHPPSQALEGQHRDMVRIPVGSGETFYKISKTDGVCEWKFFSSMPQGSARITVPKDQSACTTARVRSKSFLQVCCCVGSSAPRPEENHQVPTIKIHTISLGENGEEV

[8] = biological target: T5, Alpha-1D adrenergic receptor; experiment: Agonist activity at alpha1D adrenoreceptor in Rattus norvegicus (rat) aorta
Canis familiaris [9] = experiment: Selectivity index, ratio of ED20 for change in mean arterial pressure to ED5 for effect on intraurethral pressure in iv dosed Canis lupus familiaris (dog); parameters: species or system Artery
[10] = biological target: T4, Alpha-1A adrenergic receptor (Oryctolagus cuniculus); experiment: Agonist activity at alpha1A adrenoreceptor in Oryctolagus cuniculus (rabbit) urethra relative to phenylephrine
[11] = biological target: T8, Alpha-1D adrenergic receptor (Rattus norvegicus) (UniProt P23944); experiment: Agonist activity at alpha1D adrenoreceptor in Rattus norvegicus (rat) aorta relative to phenylephrine
T8 sequence (whole entry): T5 sequence (P23944 whole entry)

[12] = biological target: T2, Alpha-1B adrenergic receptor (Rattus norvegicus); experiment: Agonist activity at alpha1B adrenoreceptor in Rattus norvegicus (rat) spleen relative to phenylephrine
[13] = biological target: T5, Alpha-1D adrenergic receptor; experiment: Antagonist activity at alpha1D adrenoreceptor in Rattus norvegicus (rat) aorta assessed as inhibition of phenylephrine-indued contraction; settings: read-out: pA2 (converted)
[14] = biological target: T6, Alpha-1B adrenergic receptor; experiment: Antagonist activity at alpha1B adrenoreceptor in Rattus norvegicus (rat) spleen assessed as inhibition of phenylephrine-indued contraction; settings: read-out: pA2 (converted)
Canis familiaris [15] = experiment: Pressor activity in Canis lupus familiaris (dog) assessed as increase in mean arterial blood pressure at 100 nmol/kg, iv; format: ADME, organism-based; settings: in vivo
Canis familiaris [16] = experiment: Pressor activity in Canis lupus familiaris (dog) assessed as increase in mean arterial blood pressure at 100 nmol/kg, iv in presence of prazosin; format: ADME, organism-based; settings: in vivo
Canis familiaris [17] = experiment: Pressor activity in Canis lupus familiaris (dog) assessed as increase in mean arterial blood pressure at 100 nmol/kg, iv in presence of idazoxan; format: ADME, organism-based; settings: in vivo

| SMILES | pEC50 [2] | Ki [3] | Ki [5] | Ki [7] | other results |
| --- | --- | --- | --- | --- | --- |
| O=S(=O)(Nc1cccc2c1CCCC2c1c[nH]cn1)C1CC1 (stereo unspecified) | inactive | > 10 µM |  |  | EC50 [1]: 5.62 µM |
| CCCS(=O)(=O)Nc1cccc2c1CCCC2c1c[nH]cn1 (stereo unspecified) | inactive | > 10 µM | > 10 µM |  | pEC50 [4]: inactive |
| Nc1cccc2c1CCCC2c1c[nH]cn1 (stereo unspecified) |  |  |  | 0.126 µM | EC50 [1]: 0.275 µM; EC50 [6]: 0.977 µM |
| CCCS(=O)(=O)Nc1c(O)ccc2c1CCCC2C1=NCCN1 (stereo unspecified) |  | 3.09 µM | 1.86 µM | 0.776 µM |  |
| O=S(=O)(Nc1c(O)ccc2c1CCCC2C1=NCCN1)C(F)(F)F (stereo unspecified) |  | > 3.16 µM | > 3.16 µM | > 3.16 µM |  |
| COc1ccc(OC)c(C(O)CN)c1 (stereo unspecified) [DESGLYMIDODRINE] |  |  |  |  | EC50 [8]: 1.86 µM; EC50 [1]: 7.08 µM; Selectivity Index (Canis familiaris [9]): 1.3 |
| CCS(=O)(=O)Nc1c(O)ccc2c1CCCC2C1=NCCN1 (stereo unspecified) |  | 4.27 µM | 2.19 µM | 0.0603 µM |  |
| CS(=O)(=O)Nc1c(O)ccc2c1CCCC2C1=NCCN1 (stereo unspecified) |  |  |  |  | Efficacy [10]: 88%; Efficacy [11]: 99% |
| CC(C)S(=O)(=O)Nc1cccc2c1CCCC2c1c[nH]cn1 (stereo unspecified) |  | > 10 µM |  |  | EC50 [1]: 6.76 µM; EC50 [6]: 14.1 µM; Efficacy [12]: 8% |
| CCS(=O)(=O)Nc1cccc2c1CCC[C@H]2c1c[nH]cn1 |  | 1.32 µM | 1.07 µM | 0.0468 µM | Efficacy [10]: 71%; Kb [13]: 7.24 µM; EC50 [1]: 0.17 µM; EC50 [6]: 3.8 µM; Selectivity Index (Canis familiaris [9]): 3.3; Kb [14]: 13.8 µM; Efficacy [12]: 11% |
| COC(=O)Nc1c(O)ccc2c1CCCC2C1=NCCN1 (stereo unspecified) |  | 10 µM | 8.51 µM | 0.288 µM |  |
| CS(=O)(=O)Nc1cccc2c1CCCCC2c1c[nH]cn1 (stereo unspecified) | inactive |  |  |  |  |
| Cn1cnc(C2CCCc3c(NS(C)(=O)=O)cccc32)c1 (stereo unspecified) |  | 1.05 µM | 3.63 µM |  |  |
| COc1ccc2c(c1NS(C)(=O)=O)CCCC2C1=NCCN1 (stereo unspecified) |  | 3.47 µM | 1.55 µM | 0.617 µM |  |
| COC(=O)Nc1cccc2c1CCCC2c1c[nH]cn1 (stereo unspecified) | inactive |  |  |  | pEC50 [4]: inactive |
| CCS(=O)(=O)Nc1cccc2c1CCCC2c1c[nH]cn1 (stereo unspecified) | inactive |  |  |  |  |
| NC(=O)Nc1c(O)ccc2c1CCCC2C1=NCCN1 (stereo unspecified) |  | 10 µM | 5.5 µM | 7.08 µM |  |
| CCS(=O)(=O)Nc1cccc(Cc2c[nH]cn2)c1 |  |  |  |  | Kb [13]: 0.661 µM; Activity (Canis familiaris [15]): Toxic; Activity (Canis familiaris [16]): Non-toxic; Activity (Canis familiaris [17]): Toxic; Kb [14]: 4.07 µM; Efficacy [12]: 11% |
| Cn1cncc1C1CCCc2c(NS(C)(=O)=O)cccc21 (stereo unspecified) | inactive | > 10 µM | > 10 µM | > 10 µM | pEC50 [4]: inactive |
| O=S(=O)(Nc1c(O)ccc2c1CCCC2C1=NCCN1)c1ccccc1 (stereo unspecified) |  | > 3.16 µM | > 3.16 µM | > 3.16 µM |  |
| CCS(=O)(=O)Nc1cccc(Cc2c[nH]cn2)c1C |  |  |  |  | Kb [13]: 5.89 µM; Kb [14]: 15.1 µM |
| O=S(=O)(CC(F)(F)F)Nc1cccc2c1CCCC2c1c[nH]cn1 (stereo unspecified) | inactive | > 10 µM | > 10 µM |  | Efficacy [10]: 64%; Kb [13]: 27.5 µM; Kb [14]: 42.7 µM |
| CC(N)C(O)c1ccccc1 (stereo unspecified) [PHENYLPROPANOLAMINE] |  |  |  |  | EC50 [8]: 75.9 µM; EC50 [1]: 234 µM; EC50 [6]: 282 µM; Selectivity Index (Canis familiaris [9]): 0.4 |
| CN(c1c(O)ccc2c1CCCC2C1=NCCN1)S(C)(=O)=O (stereo unspecified) |  | 15.8 µM | 18.2 µM | 5.5 µM |  |
| CCS(=O)(=O)Nc1cccc2c1CCCC2c1c[nH]c(C)n1 (stereo unspecified) | inactive | > 10 µM | > 10 µM |  | pEC50 [4]: inactive |
